Literature values, collected in patent US7691903B2, “Oxidation-sensitive hydrophilic active principle containing composition and use thereof” (L'Oreal, priority 2002, dated 2010).

Conditions: ascorbic acid derivatives; J. Am. Acad. Dermatol., 1996, 34, 29-33

- bioavailability: very low
Compound: O=C1O[C@H]([C@@H](O)CO)C([O-])=C1OP(=O)([O-])[O-].O=C1O[C@H]([C@@H](O)CO)C([O-])=C1OP(=O)([O-])[O-].[Mg+2].[Mg+2].[Mg+2] [magnesium ascorbyl phosphate]
